IC50 data for 12 molecules are collected here from US20110098288A1, “SULFONAMIDES AS ZAP-70 INHIBITORS” (priority 2008, published 2011).

One assay concerns the target T1, ZAP-70 (Homo sapiens, UniProt P43403).
T1 construct: endogenous in cells; host or cells: cell lysate
T1 sequence (P43403 1-619): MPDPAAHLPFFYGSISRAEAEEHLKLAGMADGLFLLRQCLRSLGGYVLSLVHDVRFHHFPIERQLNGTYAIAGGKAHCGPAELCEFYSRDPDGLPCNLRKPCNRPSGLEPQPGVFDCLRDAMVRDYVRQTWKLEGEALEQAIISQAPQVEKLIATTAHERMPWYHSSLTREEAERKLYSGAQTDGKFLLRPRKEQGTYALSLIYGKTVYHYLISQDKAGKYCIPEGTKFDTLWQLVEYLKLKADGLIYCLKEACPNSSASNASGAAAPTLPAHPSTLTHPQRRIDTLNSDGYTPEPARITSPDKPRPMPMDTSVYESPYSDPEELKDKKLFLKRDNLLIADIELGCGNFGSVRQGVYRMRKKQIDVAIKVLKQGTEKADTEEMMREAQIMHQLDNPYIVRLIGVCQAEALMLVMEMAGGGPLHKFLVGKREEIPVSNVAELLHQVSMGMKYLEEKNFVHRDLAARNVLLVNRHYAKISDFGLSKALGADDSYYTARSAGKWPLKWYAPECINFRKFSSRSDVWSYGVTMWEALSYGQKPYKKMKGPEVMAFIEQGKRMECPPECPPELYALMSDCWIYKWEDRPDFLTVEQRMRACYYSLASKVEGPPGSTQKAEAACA
In words: ZAP-70 kinobeads assay. It counts as binding. The conditions noted are these: competition with immobilized aminopyrido-pyrimidine ligand 24 in cell lysate; ZAP-70 detected by dot blot. In short, it runs like this:
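Cell lysate aliquots incubated with test compounds at various concentrations plus affinity beads carrying immobilized aminopyrido-pyrimidine ligand 24. Bead-captured proteins eluted; ZAP-70 quantified by specific antibody dot blot with infrared detection.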

The test system of the next assay is Jurkat cells. Kind of assay: Calcium release assay (Fluo-4 flow cytometry after anti-CD3 stimulation). It counts as cell-based. The conditions noted are these: Homo sapiens, Jurkat cell line J77, anti-CD3 activation, read-out: IC50 (Calcium ion release in cells). As for the experimental part: Compounds of the present invention were tested in a Calcium release assay as described below.
The development of fluorescent probes makes it possible to measure the concentration of intracellular free Calcium ions in single living cells. Cells are first loaded with a cell-permeable Ca^2+-sensitive dye, then the test compound is added. Finally, cells are activated through the T cell receptor with an anti-CD3 antibody shortly before data acquisition on the flow cytometer. The release of Ca^2+ is measured as a function of time after cell stimulation. This protocol describes the flow cytometry method using the Fluo-3 and Fluo-4 dyes (Minta et al., 1989, J. Biol. Chem. 264(14):8171-8178) to measure the intracellular Ca^2+ concentration in Jurkat cells (see also June et al., 1997, Measurement of intracellular calcium ions by flow cytometry. In: Current Protocols in Cytometry (1997) Unit 9.8.1-9.8.19, John Wiley & Sons, Inc.).
In general, cells should be handled in the shortest time possible to assure their stability. Therefore the preparation of all materials in advance is highly recommended as well as using any incubation or centrifugation time to prepare the next steps (e.g. preparing compound dilution or starting the flow cytometer).
1) Prepare a work plan indicating the number of samples to be analyzed including controls. 2) Cell harvest: Centrifuge 50 to 100 ml of a Jurkat cell culture for 5 minutes at 1100 rpm. Discard the supernatant, pool the resuspended cell pellets in a single 50 ml Falcon tube, and fill up to 50 ml with PBS—CaCl2 (without FCS). Centrifuge again sample again. 3) Resuspend cell pellet with PBS—CaCl2 (without FCS) to achieve a concentration not lower than 10×10^6 cells/ml. Prepare an adequate dilution to evaluate the cell concentration and count the cells. 4) Separate the volume of cells needed to be loaded (for example […] for 20 samples) in a 50 ml Falcon tube. Fill up with PBS—CaCl2 to 900 μl for 107 cells. 5) Prepare in the dark a 1:1 mix of FLUO-4 (1 mM)+Pluronic F-127 (20%). 5 μl of Fluo-4 are needed per 107 cells. 6) Prepare a 1/10 dilution of this mix with PBS—CaCl2 (in the dark; for example 5 μl Fluo-4+5 μl F-127 completed to 100 μl). 7) Add the dye solution to the cells. […] 8) Incubate the sample for 30 minutes in a cell incubator (37° C., 5% CO2). Mix from time to time. 9) During this time prepare the adequate test compound dilution in PBS—CaCl2 (with 10% FCS). The solution should be 10 times more concentrated than the desired final concentration. Vortex each dilution. Prepare also the antibody dilutions: anti-CD3 (1/200) and GAM (1/25). 10) Label FACS tubes and distribute in the corresponding tube 30 μl of the compound dilution or only buffer for the control tubes. 11) After 30 minutes of incubation wash the cells twice in PBS—CaCl2 (with 10% FCS). During the washing steps make sure that the flow cytometer is already “ON” in order to warm the laser. 12) Resuspend the cell pellet in PBS—CaCl2 (with 10% FCS) at a concentration of 1.5×10^6 cells/ml. 13) Distribute 300 μl of cell suspension into the FACS tubes and mix gently. The compound incubation is starting. Keep samples at room temperature in the dark. 14) Open the settings of the cytometer. It is advised to have a template ready which is used for all measurements. Settings of the machine should also be the same from one experiment to the other which permits to evaluate the reproducibility of the cell preparation. 15) In Setup modus control your cell preparation on the cytometer. Cells should fit in the pre-defined gates. 16) During the compound incubation time, check also that cells are responding to the anti-CD3 activation as expected. Set a timer at 8 sec. Add 6 μl of anti-CD3 dilution (0.2 μg/ml final) and mix gently. Add 1 μl of GAM dilution (0.75 μg/ml final) and mix gently. Incubate the samples in water bath at 37° C. while starting timer. After 8 seconds of incubation, acquire data at medium speed for 200 seconds. […]

As for `CS(=O)(=O)Nc1ccccc1Nc1nc(Nc2cccc(OCCN3CCCC3)c2)ncc1F` [Example 95, N-(2-(5-fluoro-2-(3-(2-(pyrrolidin-1-yl)ethoxy)phenylamino)pyrimidin-4-ylamino)phenyl)methanesulfonamide], the IC50 is < 100 nM at ZAP-70 and 100 to 1000 nM in the assay with Jurkat cells.
As for `CS(=O)(=O)Nc1ccccc1Nc1nc(Nc2ccc(OCCN3CCCC3)cc2)ncc1F` [Example 96, N-(2-(5-fluoro-2-(4-(2-(pyrrolidin-1-yl)ethoxy)phenylamino)pyrimidin-4-ylamino)phenyl)methanesulfonamide], the IC50 on ZAP-70 and in the assay with Jurkat cells was 100 to 1000 nM throughout.
As for `CN1CCCCC1COc1cccc(Nc2ncc(F)c(Nc3ccccc3NS(C)(=O)=O)n2)c1` (stereo not drawn) [Example 97, N-(2-(5-fluoro-2-(3-((1-methylpiperidin-2-yl)methoxy)phenylamino)pyrimidin-4-ylamino)phenyl)methanesulfonamide], the concentration for half-maximal inhibition (IC50) at ZAP-70 was 100 to 1000 nM; in the assay with Jurkat cells, < 100 nM.
The matching figures for `CN1CCCC(COc2cccc(Nc3ncc(F)c(Nc4ccccc4NS(C)(=O)=O)n3)c2)C1` (stereo not drawn) [Example 98, N-(2-(5-fluoro-2-(3-((1-methylpiperidin-3-yl)methoxy)phenylamino)pyrimidin-4-ylamino)phenyl)methanesulfonamide]: < 100 nM and 100 to 1000 nM.
In the same order, the values of `CCNC(=O)COc1cccc(Nc2ncc(F)c(Nc3ccccc3NS(C)(=O)=O)n2)c1` [Example 101, N-ethyl-2-(3-(5-fluoro-4-(2-(methylsulfonamido)phenylamino)pyrimidin-2-ylamino)phenoxy)acetamide] are 100 to 1000 nM and 100 to 1000 nM.
In the same order, the values of `COc1cc(Nc2ncc(Br)c(Nc3ccccc3NS(C)(=O)=O)n2)ccc1C` [Example 104, N-(2-(5-bromo-2-(3-methoxy-4-methylphenylamino)pyrimidin-4-ylamino)phenyl)methanesulfonamide] are 100 to 1000 nM and 100 to 1000 nM.
As for `COc1cc(Nc2ncc(Br)c(Nc3ccccc3NS(C)(=O)=O)n2)cc(OC)c1` [Example 105, N-(2-(5-bromo-2-(3,5-dimethoxyphenylamino)pyrimidin-4-ylamino)phenyl)methanesulfonamide], the IC50 on ZAP-70 was 100 to 1000 nM; with Jurkat cells, < 100 nM.
The matching figures for `COc1ccc(Nc2ncc(Br)c(Nc3ccccc3NS(C)(=O)=O)n2)cc1` [Example 106, N-(2-(5-bromo-2-(4-methoxyphenylamino)pyrimidin-4-ylamino)phenyl)methanesulfonamide]: 100 to 1000 nM and 100 to 1000 nM.
The matching figures for `COc1ccc(Nc2ncc(Br)c(Nc3ccccc3NS(C)(=O)=O)n2)cc1OC` [Example 107, N-(2-(5-bromo-2-(3,4-dimethoxyphenylamino)pyrimidin-4-ylamino)phenyl)methanesulfonamide]: < 100 nM and < 100 nM.
The matching figures for `Cc1cccc(Nc2nc(Nc3cccc(OCCN4CCCCC4)c3)ncc2F)c1NS(C)(=O)=O` [Example 112, N-(2-(5-fluoro-2-(3-(2-(piperidin-1-yl)ethoxy)phenylamino)pyrimidin-4-ylamino)-6-methylphenyl)methanesulfonamide]: < 100 nM and 100 to 1000 nM.
Take `COc1cc(Nc2ncc(F)c(Nc3cccc(C)c3NS(C)(=O)=O)n2)cc(OC)c1OCCN1CCCCC1` [Example 113, N-(2-(2-(3,5-dimethoxy-4-(2-(piperidin-1-yl)ethoxy)phenylamino)-5-fluoropyrimidin-4-ylamino)-6-methylphenyl)methanesulfonamide]: the IC50 on ZAP-70 was < 100 nM; in the assay on Jurkat cells it was 100 to 1000 nM.
With `COc1cc(Nc2ncc(F)c(Nc3cccc(C)c3NS(C)(=O)=O)n2)cc(OCCN2CCCCC2)c1OC` [Example 114, N-(2-(2-(3,4-dimethoxy-5-(2-(piperidin-1-yl)ethoxy)phenylamino)-5-fluoropyrimidin-4-ylamino)-6-methylphenyl)methanesulfonamide], the figures for the half-maximal inhibitory concentration (IC50) on ZAP-70 and with Jurkat cells were < 100 nM and 100 to 1000 nM, respectively.
